The nature of this data set: log P (pH2.3). It is filed as physicochemical. As to conditions: for chromatographic logP: reversed-phase HPLC column (C18).
Where [1] appears, read: method [b]: LC-MS, acidic range, pH 2.7, 0.1% aqueous formic acid and acetonitrile.
The mark [2] stands for this setting: method [b]: LC-MS, acidic range, pH 2.7, 0.1% aqueous formic acid and acetonitrile, HPLC on reversed-phase C 18.
[3] abbreviates: method [c]: LC-MS, neutral range, pH 7.8, 0.001 molar aqueous ammonium bicarbonate solution and acetonitrile, HPLC on reversed-phase C 18.
[4] abbreviates: method [c]: LC-MS, neutral range, pH 7.8, 0.001 molar aqueous ammonium bicarbonate and acetonitrile.

On to `O=C(Cc1ccsc1)N1CCC(c2nc(CCc3ccccc3)cs2)CC1` [Example I-63, 1-{4-[4-(2-Phenylethyl)-1,3-thiazol-2-yl]piperidin-1-yl}-2-(thiophen-3-yl)ethanone], for which the chromatographic logP under setting [1] came to 3.47. On to `O=C(Cn1nc(C(F)(F)F)cc1C(F)(F)F)N1CCC(c2nc(C#Cc3cccc4ccccc34)cs2)CC1` [Example I-114], for which, under setting [1], the log p is 5.03^[b]. Turning to `O=C(Cn1ccc(C(F)(F)F)n1)N1CCC(c2nc(CCc3ccccc3)cs2)CC1` [Example I-55], under setting [1], the log p is 3.57^[b].

Take `O=C(Cn1nc(C(F)F)cc1C(F)F)N1CCC(c2nc(CCC3CCCCC3)cs2)CC1` [Example I-148]: the log p under setting [2] was 4.87^[b]. Take `O=C(Cn1nc(C(F)F)cc1C(F)F)N1CCC(c2nc(CCc3cccc4ccccc34)cs2)CC1` [Example I-109]: under setting [1], the log p is 4.25^[b]. The same measure, in the same setting: as for `COc1ccc(/C=C\c2csc(C3CCN(C(=O)Cn4nc(C(F)(F)F)c(Cl)c4C)CC3)n2)cc1` [Example I-14], the figure is 4.46^[b]; as for `CC(C)c1cc(C(F)(F)F)n(CC(=O)N2CCC(c3nc(C#Cc4cccc5ccccc45)cs3)CC2)n1` [Example I-122], 4.99^[b]. Regarding `O=C(Cn1nc(C(F)F)cc1C(F)F)N1CCC(c2nc(C#Cc3c(F)cccc3F)cs2)CC1` [Example I-220], the log p by setting is: under setting [2], 3.7^[b]; under setting [3], 3.73^[c];. On to `COc1ccc(C#Cc2csc(C3CCN(C(=O)Cn4nc(C(F)(F)F)cc4C)CC3)n2)c(OC)c1` [Example I-104], for which the log p under setting [1] is 3.67^[b]. The same measure, in the same setting: under `O=C(Cn1ccc(C(F)(F)F)n1)N1CCC(c2nc(/C=C\c3ccc(Cl)cc3)cs2)CC1` [Example I-10] stands 4.2^[b ]. Same read-out and setting: as for `Cc1cc(C(F)(F)F)nn1CC(=O)N1CCC(c2nc(/C=C/c3cccc(C(F)(F)F)c3)cs2)CC1` [Example I-94], the figure is 4.46^[b]. For `Cc1c(Cl)c(C(F)(F)F)nn1CC(=O)N1CCC(c2nc(/C=C\c3ccc4ccccc4c3)cs2)CC1` [Example I-22], the log p under setting [1] was 5.08^[b]. `Cc1ccc(C)c(CC(=O)N2CCC(c3nc(/C=C\c4ccccc4C)cs3)CC2)c1` [Example I-237]: the log p runs as follows: under setting [2], 4.86^[b]; under setting [3], 4.95^[c];.

Turning to `O=C(Cn1cccn1)N1CCC(c2nc(CCc3ccccc3)cs2)CC1` [Example I-69], under setting [1], the log p was 2.56^[b]. As to `CC(C)(C)c1cc(C(F)(F)F)n(CC(=O)N2CCC(c3nc(C#Cc4cccc5ccccc45)cs3)CC2)n1` [Example I-118], under setting [1], the log p is 5.48^[b].

Turning to `CC(C)(C)c1cc(C(F)(F)F)nn1CC(=O)N1CCC(c2nc(C#Cc3cccc4ccccc34)cs2)CC1` [Example I-119], under setting [1], the log p was 5.14^[b].

For `Cc1cccnc1C#Cc1csc(C2CCN(C(=O)Cn3nc(C(F)F)cc3C(F)F)CC2)n1` [Example I-222], the log p by setting is: under setting [2], 2.68^[b]; under setting [3], 2.86^[c];. Turning to `Cc1cc(C(F)(F)F)nn1CC(=O)N1CCC(c2nc(C#Cc3ccccc3)cs2)CC1` [Example I-99], the log p under setting [1] is 3.82^[b].

Regarding `Cc1ccc(C)c(CC(=O)N2CCC(c3nc(C#Cc4ccccc4C)cs3)CC2)c1` [Example I-230], the log p runs as follows: under setting [2], 4.75^[b]; under setting [3], 4.78^[c];.

As to `Cc1c(Cl)c(C(F)(F)F)nn1CC(=O)N1CCC(c2nc(/C=C\c3ccccc3)cs2)CC1` [Example I-8], the log p under setting [1] was 4.56^[b]. `Cc1noc(C)c1C#Cc1csc(C2CCN(C(=O)Cc3cc(Cl)ccc3Cl)CC2)n1` [Example I-229]: the log p under setting [2] is 3.86^[b].

Take `COc1ccc(CCC(=O)N2CCC(c3nc(CCc4ccccc4)cs3)CC2)cc1OC` [Example I-66, 3-(3,4-Dimethoxyphenyl)-1-{4-[4-(2-phenylethyl)-1,3-thiazol-2-yl]piperidin-1-yl}propan-1-one]: the chromatographic logP under setting [1] stood at 3.43.

With `O=C(c1cc(C(F)(F)F)ccc1C(F)(F)F)N1CCC(c2nc(CCc3ccccc3)cs2)CC1` [Example I-61, [2,5-Bis(trifluoromethyl)phenyl]{4-[4-(2-phenylethyl)-1,3-thiazol-2-yl]piperidin-1-yl}methanone], the chromatographic logP under setting [1] was determined as 4.67. Turning to `Cc1cc(C(F)(F)F)nn1CC(=O)N1CCC(c2nc(/C=C\Cc3ccccc3)cs2)CC1` [Example I-23], under setting [1], the log p was 4.41^[b]. Same read-out and setting: as for `Cc1c(Cl)c(C(F)(F)F)nn1CC(=O)N1CCC(c2nc(CCc3ccccc3)cs2)CC1` [Example I-60], the figure is 4.34^[b]; as for `CC(C)c1cc(C(F)(F)F)n(CC(=O)N2CCC(c3nc(CCc4cccc5ccccc45)cs3)CC2)n1` [Example I-121], 4.89^[b].

On to `Cc1cccnc1C#Cc1csc(C2CCN(C(=O)Cn3nc(C(F)(F)F)cc3C)CC2)n1` [Example I-210], for which the log p runs as follows: under setting [2], 2.72^[b]; under setting [3], 2.95^[c];.

`CCCCC(=O)N1CCC(c2nc(CCc3ccccc3)cs2)CC1` [Example I-58, 1-{4-[4-(2-Phenylethyl)-1,3-thiazol-2-yl]piperidin-1-yl}pentan-1-one]: under setting [1], the chromatographic logP was 3.73.

For the molecule `Cc1cc(C(F)(F)F)nn1CC(=O)N1CCC(c2nc(C#Cc3ccc(Cl)cc3)cs2)CC1` [Example I-102], the log p under setting [1] was 4.37^[b].

On to `Cc1cc(C(F)(F)F)nn1CC(=O)N1CCC(c2nc(C#Cc3ccccc3Cl)cs2)CC1` [Example I-101], for which the log p under setting [1] was 4.12^[b]. Regarding `O=C(Cn1nc(C(F)(F)F)cc1C(F)(F)F)N1CCC(c2nc(C#Cc3c(F)cccc3F)cs2)CC1` [Example I-214], under setting [2], the log p is 4.4^[b]. Turning to `Cc1nc(C2CCN(C(=O)Cn3nc(C(F)(F)F)cc3C)CC2)sc1CC(C)C` [Example I-73], the log p under setting [1] was 3.75^[b]. As for `Cc1ccc(C)c(CC(=O)N2CCC(c3nc(C#Cc4ccccc4Br)cs3)CC2)c1` [Example I-231], the log p by setting is: under setting [2], 4.77^[b]; under setting [3], 4.8^[c];. The molecule `O=C(Cc1cc(C(F)(F)F)ccc1Cl)N1CCC(c2nc(CCc3ccccc3)cs2)CC1` [Example I-67, 2-[2-Chloro-5-(trifluoromethyl)phenyl]-1-{4-[4-(2-phenylethyl)-1,3-thiazol-2-yl]piperidin-1-yl}ethanone] registered a chromatographic logP under setting [1] of 4.73. Take `Cc1cc(C)n(CC(=O)N2CCC(c3nc(/C=C/c4cccc(C(F)(F)F)c4)cs3)CC2)n1` [Example I-96]: the log p under setting [1] was 3.56^[b]. The same measure, in the same setting: as for `O=C(Cn1ccc(C(F)(F)F)n1)N1CCC(c2nc(/C=C\c3cccc4ccccc34)cs2)CC1` [Example I-18], the figure is 4.35^[b]; as for `CC(C)(C)c1cc(C(F)(F)F)nn1CC(=O)N1CCC(c2nc(CCc3cccc4ccccc34)cs2)CC1` [Example I-111], 5.14^[b]. Turning to `O=C(Cn1nc(C(F)(F)F)cc1C(F)(F)F)N1CCC(c2nc(C=Cc3c(F)cccc3F)cs2)CC1` (mixture of isomers) [Example I-176], the log p under setting [2] was 4.88^[b]. As to `Cc1ccc(C)c(CC(=O)N2CCC(c3nc(CCc4c(F)cccc4F)cs3)CC2)c1` [Example I-160], the log p under setting [2] was 4.48^[b] and the log p under setting [3] was 4.55^[c];. On the same counts, the results for `Cc1cccnc1C#Cc1csc(C2CCN(C(=O)Cc3cc(Cl)ccc3Cl)CC2)n1` [Example I-228] are 3.35^[b] and 3.55^[c]. Turning to `Cc1cc(C)n(CC(=O)N2CCC(c3nc(C#Cc4cccc5ccccc45)cs3)CC2)n1` [Example I-74], under setting [4], the log p was 3.85^[c]. Consider `Cc1cc(C(F)(F)F)nn1CC(=O)N1CCC(c2nc(/C=C\c3ccc(Cl)cc3)cs2)CC1` [Example I-9], for which the log p under setting [1] was 4.41^[b]. Take `Cc1cc(C(F)(F)F)nn1CC(=O)N1CCC(c2nc(CCc3c(F)cccc3F)cs2)CC1` [Example I-128]: the log p is, setting by setting: under setting [1], 3.9^[b]; under setting [4], 3.97^[c],. `Cc1ccccc1CCc1csc(C2CCN(C(=O)Cn3nc(C(F)(F)F)cc3C)CC2)n1` [Example I-126]: the log p was 4.08^[b] under setting [1] and 4.16^[c]; under setting [4]. Consider `Cc1c(Cl)c(C(F)(F)F)nn1CC(=O)N1CCC(c2nc(/C=C\c3cccc(C(F)(F)F)c3)cs2)CC1` [Example I-17], for which the log p under setting [1] was 5.03^[b].

As for `Cc1cc(C(F)(F)F)nn1CC(=O)N1CCC(c2nc(/C=C/c3ccccc3)cs2)CC1` [Example I-26], the log p under setting [1] is 3.99^[b]. With `Cc1ccccc1C#Cc1csc(C2CCN(C(=O)Cn3nc(C(F)F)cc3C(F)F)CC2)n1` [Example I-218], the log p is 3.99^[b] under setting [2] and 4.02^[c]; under setting [3]. The like results for `Cc1ccc(C)c(CC(=O)N2CCC(c3nc(CCc4ccccc4C)cs3)CC2)c1` [Example I-158] were, in that order, 4.67^[b] and 4.77^[c];. Consider `O=C(Cn1nc(C(F)F)cc1C(F)F)N1CCC(c2nc(CCC3CCCc4ccccc43)cs2)CC1` (stereo not drawn) [Example I-149], for which, under setting [2], the log p was 4.78^[b].

As for `O=C(Cc1cccc(Cl)c1)N1CCC(c2nc(CCc3ccccc3)cs2)CC1` [Example I-57], the log p under setting [1] is 4.1^[b].

For `COc1ccc(/C=C\c2csc(C3CCN(C(=O)Cn4nc(C(F)(F)F)cc4C)CC3)n2)cc1` [Example I-12], under setting [1], the log p was 3.9^[b]. `Cc1cc(C(F)(F)F)nn1CC(=O)N1CCC(c2nc(CCc3ccccc3)c(Br)s2)CC1` [Example I-78, 1-{4-[5-Bromo-4-(2-phenylethyl)-1,3-thiazol-2-yl]piperidin-1-yl}-2-[5-methyl-3-(trifluoromethyl)-1H-pyrazol-1-yl]ethanone] displayed a chromatographic logP under setting [1] of 4.71. With `O=C(Cn1nc(C(F)(F)F)cc1C(F)(F)F)N1CCC(c2nc(C=Cc3ccccc3Br)cs2)CC1` (mixture of isomers) [Example I-175], the log p under setting [2] is 4.99^[b]. Turning to `Cc1cccnc1/C=C\c1csc(C2CCN(C(=O)Cn3nc(C(F)(F)F)cc3C(F)(F)F)CC2)n1` [Example I-236], the log p under setting [2] was 2.46^[b].

The term chromatographic logP denotes a lipophilicity value derived from retention on a column. Read a low chromatographic logP as lower lipophilicity.
